Measured values as given in patent publication US20140045823A1 (Neurocrine Biosciences, Inc., priority 2012, published 2014).

biological target: T1, human GPR119 (Homo sapiens, UniProt Q8TDV5); test: AlphaScreen cAMP assay in MIN6 cells stably transfected with human GPR119; format: cell-based; details: Min-6/hGPR119 cells, 45 min at room temperature
T1 construct: expression vector for human GPR119 cDNA (Acc. No. NP_848566); expressed in transfected cells; Min-6/hGPR119
T1 sequence (Q8TDV5 1-335): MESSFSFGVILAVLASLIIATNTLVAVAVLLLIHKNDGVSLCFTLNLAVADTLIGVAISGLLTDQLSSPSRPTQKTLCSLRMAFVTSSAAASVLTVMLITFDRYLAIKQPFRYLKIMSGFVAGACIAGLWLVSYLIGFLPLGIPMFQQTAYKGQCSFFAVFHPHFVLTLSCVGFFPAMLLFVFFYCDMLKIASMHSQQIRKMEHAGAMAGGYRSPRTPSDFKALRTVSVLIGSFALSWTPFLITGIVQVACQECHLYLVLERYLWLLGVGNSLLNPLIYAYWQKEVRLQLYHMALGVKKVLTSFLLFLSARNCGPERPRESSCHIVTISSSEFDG
Procedure: The compounds of formula I according to the invention modulate the activity of the G-protein-coupled receptor GPR119. The effect of the compounds on the activation of GPR119 and on the stimulation of intracellular cAMP concentration is determined using the AlphaScreen cAMP Assay Kit (Cat. No. #6760625R) made by PerkinElmer.
MIN6 cells [Miyazaki J et al. Endocrinology. 1990 July; 127(1):126-32] are stably transfected with an expression vector for human GPR119 cDNA (Acc. No. NP_848566). Min-6/hGPR119 cells are cultured in DMEM, 10% FBS, 50 μM β-mercaptoethanol, 0.3 mg/mL Geniticin, 2 mM GlutaMAX at 37° C. 5% CO2. For the assay, the cells are seeded in Optiplates (white, 384-well, 160 W—barcoded, TC, sterile with lid, Cat. No. #6007688 (Perkin Elmer); 10000 cells/well; 50 μl). The plates covered with lids are then incubated for 24 hours at 37° C./5% CO2. After the medium is aspirated from the wells completely, 10 μl of the test compound are added, the compounds are diluted using stimulating buffer (140 mM NaCl, 3.6 mM KCl, 0.5 mM NaH2PO4, 0.5 mM MgSO4, 1.5 mM CaCl2, 10 mM Hepes, 5 mM NaHCO3; pH 7.4. 0.5 mM IBMX and 0.1% BSA, the final DMSO concentration is 1%). After 45 minutes incubation at room temperature (approx. 20° C.), the cAMP concentrations are determined using the AlphaScreen cAMP Assay Kit (Cat. No. #6760625R from PerkinElmer).

Structure (SMILES) | EC50 [nM]
Cc1nccn1-c1ncc(C(=O)N(C2CC2)C2CCN(C(=O)OC(C)C)CC2)cn1 [Example 54, 4-{Cyclopropyl-[2-(2-methyl-imidazol-1-yl)-pyrimidine-5-carbonyl]-amino}-piperidine-1-carboxylic acid isopropyl ester] | 129
CC(C)(C)OC(=O)N1CCC(N(C(=O)c2cnc(-n3cccn3)nc2)C2CC2)CC1 [Example 56, 4-[Cyclopropyl-(2-pyrazol-1-yl-pyrimidine-5-carbonyl)-amino]-piperidine-1-carboxylic acid tert-butyl ester] | 2780
Cc1cc(C)n(-c2ncc(C(=O)N(C3CC3)C3CCN(C(=O)OC(C)(C)C)CC3)cn2)n1 [Example 57, 4-{Cyclopropyl-[2-(3,5-dimethyl-pyrazol-1-yl)-pyrimidine-5-carbonyl]-amino}-piperidine-1-carboxylic acid tert-butyl ester] | 3750
CC(C)(C)OC(=O)N1CCC(N(C(=O)c2cnc(-n3cc(CCO)cn3)nc2)C2CC2)CC1 [Example 58, 4-(Cyclopropyl-{2-[4-(2-hydroxy-ethyl)-pyrazol-1-yl]-pyrimidine-5-carbonyl}-amino)-piperidine-1-carboxylic acid tert-butyl ester] | 2200
CCOc1ccc(-c2ncc(C(=O)N(C3CC3)C3CCN(C(=O)OC(C)C)CC3)cn2)cn1 [Example 59, 4-{Cyclopropyl-[2-(6-ethoxy-pyridin-3-yl)-pyrimidine-5-carbonyl]-amino}-piperidine-1-carboxylic acid isopropyl ester] | 167
CC(C)(C)OC(=O)N1CCC(N(C(=O)c2ccc(-c3cccc([N+](=O)[O-])c3)o2)C2CC2)CC1 [Example 62, 4-{Cyclopropyl-[5-(3-nitro-phenyl)-furan-2-carbonyl]-amino}-piperidine-1-carboxylic acid tert-butyl ester] | 786
CC(C)(C)OC(=O)N1CCC(N(C(=O)c2cc(-c3cccc([N+](=O)[O-])c3)[nH]n2)C2CC2)CC1 [Example 64, 4-{Cyclopropyl-[5-(3-nitro-phenyl)-1H-pyrazole-3-carbonyl]-amino}-piperidine-1-carboxylic acid tert-butyl ester] | 934
CC(C)(C)OC(=O)N1CCC(N(C(=O)c2cc(-c3ccc([N+](=O)[O-])cc3)[nH]n2)C2CC2)CC1 [Example 65, 4-{Cyclopropyl-[5-(4-nitro-phenyl)-1H-pyrazole-3-carbonyl]-amino}-piperidine-1-carboxylic acid tert-butyl ester] | 1170
CC(C)(C)OC(=O)N1CCC(N(C(=O)c2ncc(-c3ccc(C#N)c(F)c3)cn2)C2CC2)CC1 [Example 66, 4-{[5-(4-Cyano-3-fluoro-phenyl)-pyrimidine-2-carbonyl]-cyclopropyl-amino}-piperidine-1-carboxylic acid tert-butyl ester] | 636
CC(C)(C)OC(=O)N1CCC(N(C(=O)c2ncc(-c3ccc(CC#N)cc3)cn2)C2CC2)CC1 [Example 67] | 219
CC(C)(C)OC(=O)N1CCC(N(C(=O)c2ncc(-c3ccc(S(C)(=O)=O)cc3)cn2)C2CC2)CC1 [Example 68, 4-{Cyclopropyl-[5-(4-methanesulfonyl-phenyl)-pyrimidine-2-carbonyl]-amino}-piperidine-1-carboxylic acid tert-butyl ester] | 544
CC(C)(C)OC(=O)N1CCC(N(C(=O)c2ncc(-c3ccc(C#N)nc3)cn2)C2CC2)CC1 [Example 69, 4-{[5-(6-Cyano-pyridin-3-yl)-pyrimidine-2-carbonyl]-cyclopropyl-amino}-piperidine-1-carboxylic acid tert-butyl ester] | 1120
CC(C)(C)OC(=O)N1CCC(N(C(=O)c2cnc(-c3cccnc3)nc2)C2CC2)CC1 [Example 70, 4-[Cyclopropyl-(2-pyridin-3-yl-pyrimidine-5-carbonyl)-amino]-piperidine-1-carboxylic acid tert-butyl ester] | 489
COc1ccccc1-c1ncc(C(=O)N(C2CC2)C2CCN(C(=O)OC(C)(C)C)CC2)cn1 [Example 73, 4-{Cyclopropyl-[2-(2-methoxy-phenyl)-pyrimidine-5-carbonyl]-amino}-piperidine-1-carboxylic acid tert-butyl ester] | 1670
COc1cccc(-c2ncc(C(=O)N(C3CC3)C3CCN(C(=O)OC(C)(C)C)CC3)cn2)c1 [Example 74, 4-{Cyclopropyl-[2-(3-methoxy-phenyl)-pyrimidine-5-carbonyl]-amino}-piperidine-1-carboxylic acid tert-butyl ester] | 1010
CC(C)(C)OC(=O)N1CCC(N(C(=O)c2cnc(-c3cccc(C#N)c3)nc2)C2CC2)CC1 [Example 75, 4-{[2-(3-Cyano-phenyl)-pyrimidine-5-carbonyl]-cyclopropyl-amino}-piperidine-1-carboxylic acid tert-butyl ester] | 170
CC(C)(C)OC(=O)N1CCC(N(C(=O)c2cnc(-c3ccc(NS(C)(=O)=O)cc3)nc2)C2CC2)CC1 [Example 79, 4-{Cyclopropyl-[2-(4-methanesulfonylamino-phenyl)-pyrimidine-5-carbonyl]-amino}-piperidine-1-carboxylic acid tert-butyl ester] | 210

Now those with a lower EC50, led by results:

EC50 [nM] | Structure (SMILES)
106 | Cc1nccn1-c1ncc(C(=O)N(C2CC2)C2CCN(C(=O)OC3(C)CC3)CC2)cn1 [Example 55, 4-{Cyclopropyl-[2-(2-methyl-imidazol-1-yl)-pyrimidine-5-carbonyl]-amino}-piperidine-1-carboxylic acid 1-methyl-cyclopropyl ester]
76 | CC(C)OC(=O)N1CCC(N(C(=O)c2cnc(-c3ccc(CC#N)cc3)nc2)C2CC2)CC1 [Example 60, 4-{[2-(4-Cyanomethyl-phenyl)-pyrimidine-5-carbonyl]-cyclopropyl-amino}-piperidine-1-carboxylic acid isopropyl ester]
13 | CC(C)OC(=O)N1CCC(N(C(=O)c2cnc(-c3ccc(C#N)c(F)c3)nc2)C2CC2)CC1 [Example 61, 4-{[2-(4-Cyano-3-fluoro-phenyl)-pyrimidine-5-carbonyl]-cyclopropyl-amino}-piperidine-1-carboxylic acid isopropyl ester]
42 | CC(C)(C)OC(=O)N1CCC(N(C(=O)c2cnc(-c3ccncc3)nc2)C2CC2)CC1 [Example 63, 4-[Cyclopropyl-(2-pyridin-4-yl-pyrimidine-5-carbonyl)-amino]-piperidine-1-carboxylic acid tert-butyl ester]
90 | CC(C)(C)OC(=O)N1CCC(N(C(=O)c2cnc(-c3cncnc3)nc2)C2CC2)CC1 [Example 71, 4-[([2,5′]Bipyrimidinyl-5-carbonyl)-cyclopropyl-amino]-piperidine-1-carboxylic acid tert-butyl ester]
14 | CC(C)(C)OC(=O)N1CCC(N(C(=O)c2cnc(-c3ccc(C#N)cc3)nc2)C2CC2)CC1 [Example 72, 4-{[2-(4-Cyano-phenyl)-pyrimidine-5-carbonyl]-cyclopropyl-amino}-piperidine-1-carboxylic acid tert-butyl ester]
71 | CCOc1ccc(-c2ncc(C(=O)N(C3CC3)C3CCN(C(=O)OC(C)(C)C)CC3)cn2)cc1 [Example 76, 4-{Cyclopropyl-[2-(4-ethoxy-phenyl)-pyrimidine-5-carbonyl]-amino}-piperidine-1-carboxylic acid tert-butyl ester]
55 | CC(C)(C)OC(=O)N1CCC(N(C(=O)c2cnc(-c3ccc(OC(F)(F)F)cc3)nc2)C2CC2)CC1 [Example 77, 4-{Cyclopropyl-[2-(4-trifluoromethoxy-phenyl)-pyrimidine-5-carbonyl]-amino}-piperidine-1-carboxylic acid tert-butyl ester]
9 | CC(C)(C)OC(=O)N1CCC(N(C(=O)c2cnc(-c3ccc(CC#N)cc3)nc2)C2CC2)CC1 [Example 78, 4-{[2-(4-Cyanomethyl-phenyl)-pyrimidine-5-carbonyl]-cyclopropyl-amino}-piperidine-1-carboxylic acid tert-butyl ester]
75 | CC(C)(C)OC(=O)N1CCC(N(C(=O)c2cnc(-c3ccc(S(C)(=O)=O)cc3)nc2)C2CC2)CC1 [Example 80, 4-{Cyclopropyl-[2-(4-methanesulfonyl-phenyl)-pyrimidine-5-carbonyl]-amino}-piperidine-1-carboxylic acid tert-butyl ester]
